Data: ChEMBL document CHEMBL5291721, “A preclinical secondary pharmacology resource illuminates target-adverse drug reaction associations of marketed drugs” (Nat Commun, 2023)

Columns and labels:
[1] = molecular target: T1, Adenosine receptor A3 (Homo sapiens, UniProt P0DMS8)
T1 sequence (P0DMS8 whole entry): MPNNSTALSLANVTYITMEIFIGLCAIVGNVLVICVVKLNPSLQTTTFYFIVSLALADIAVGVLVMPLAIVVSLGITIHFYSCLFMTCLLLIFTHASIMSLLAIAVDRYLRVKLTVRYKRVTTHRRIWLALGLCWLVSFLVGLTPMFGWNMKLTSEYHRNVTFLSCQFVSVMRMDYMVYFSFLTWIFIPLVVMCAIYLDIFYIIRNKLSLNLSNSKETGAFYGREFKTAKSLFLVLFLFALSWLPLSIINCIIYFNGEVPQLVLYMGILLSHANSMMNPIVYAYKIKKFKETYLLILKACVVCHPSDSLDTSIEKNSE

[2] = molecular target: Mu-type opioid receptor (Homo sapiens, UniProt P35372)
[3] = molecular target: Sodium-dependent serotonin transporter (Homo sapiens, UniProt P31645)
[4] = molecular target: T2, Alpha-1A adrenergic receptor (Homo sapiens, UniProt P35348)
T2 sequence (P35348 whole entry): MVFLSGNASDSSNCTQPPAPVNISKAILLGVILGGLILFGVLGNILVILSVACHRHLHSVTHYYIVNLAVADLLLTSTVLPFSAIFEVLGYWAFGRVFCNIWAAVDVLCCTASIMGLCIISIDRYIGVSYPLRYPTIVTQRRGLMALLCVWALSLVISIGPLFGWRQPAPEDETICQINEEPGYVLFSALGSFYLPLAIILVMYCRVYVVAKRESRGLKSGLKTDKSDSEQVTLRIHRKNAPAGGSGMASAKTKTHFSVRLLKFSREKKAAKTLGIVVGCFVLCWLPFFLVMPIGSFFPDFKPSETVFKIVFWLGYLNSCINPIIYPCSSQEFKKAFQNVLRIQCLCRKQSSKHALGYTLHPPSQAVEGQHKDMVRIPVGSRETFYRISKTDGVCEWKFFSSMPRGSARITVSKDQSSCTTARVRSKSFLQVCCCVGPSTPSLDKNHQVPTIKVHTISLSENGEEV

[5] = molecular target: T3, Cholecystokinin receptor type A (Homo sapiens, UniProt P32238)
T3 sequence (P32238 whole entry): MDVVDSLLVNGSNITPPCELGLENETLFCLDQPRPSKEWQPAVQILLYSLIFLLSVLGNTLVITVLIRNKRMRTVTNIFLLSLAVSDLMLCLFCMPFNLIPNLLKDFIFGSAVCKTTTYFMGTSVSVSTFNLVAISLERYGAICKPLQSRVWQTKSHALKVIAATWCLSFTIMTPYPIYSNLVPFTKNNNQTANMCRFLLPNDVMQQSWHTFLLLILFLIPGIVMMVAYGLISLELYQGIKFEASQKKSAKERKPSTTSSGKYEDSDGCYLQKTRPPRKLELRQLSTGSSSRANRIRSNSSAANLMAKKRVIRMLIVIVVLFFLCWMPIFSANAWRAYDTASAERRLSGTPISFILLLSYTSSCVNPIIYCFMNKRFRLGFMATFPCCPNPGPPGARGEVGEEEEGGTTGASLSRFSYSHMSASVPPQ

[6] = molecular target: T4, Alpha-2C adrenergic receptor (Homo sapiens, UniProt P18825); format: functional
T4 sequence (P18825 whole entry): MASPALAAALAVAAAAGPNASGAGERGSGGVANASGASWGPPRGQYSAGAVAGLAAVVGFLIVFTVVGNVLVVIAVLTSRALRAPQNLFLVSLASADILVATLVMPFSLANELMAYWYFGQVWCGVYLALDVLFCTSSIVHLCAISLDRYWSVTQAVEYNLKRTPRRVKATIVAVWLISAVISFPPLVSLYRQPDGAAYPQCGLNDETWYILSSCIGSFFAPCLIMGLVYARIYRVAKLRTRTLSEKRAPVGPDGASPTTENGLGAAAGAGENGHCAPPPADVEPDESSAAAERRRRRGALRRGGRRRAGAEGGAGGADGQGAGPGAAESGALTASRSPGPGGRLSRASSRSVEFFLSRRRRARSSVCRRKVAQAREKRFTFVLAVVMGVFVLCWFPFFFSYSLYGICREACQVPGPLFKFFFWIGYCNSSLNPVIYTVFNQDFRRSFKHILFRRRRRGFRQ

[7] = molecular target: T1, Adenosine receptor A3; remark: listed apart in the source
[8] = molecular target: 5-hydroxytryptamine receptor 2B (Homo sapiens, UniProt P41595); format: functional, cell-based
[9] = molecular target: T2, Alpha-1A adrenergic receptor; format: functional, cell-based
[10] = molecular target: Cannabinoid receptor 1 (Homo sapiens, UniProt P21554); format: functional, cell-based
[11] = molecular target: T5, Alpha-2A adrenergic receptor (Homo sapiens, UniProt P08913); format: functional, cell-based
T5 sequence (P08913 whole entry): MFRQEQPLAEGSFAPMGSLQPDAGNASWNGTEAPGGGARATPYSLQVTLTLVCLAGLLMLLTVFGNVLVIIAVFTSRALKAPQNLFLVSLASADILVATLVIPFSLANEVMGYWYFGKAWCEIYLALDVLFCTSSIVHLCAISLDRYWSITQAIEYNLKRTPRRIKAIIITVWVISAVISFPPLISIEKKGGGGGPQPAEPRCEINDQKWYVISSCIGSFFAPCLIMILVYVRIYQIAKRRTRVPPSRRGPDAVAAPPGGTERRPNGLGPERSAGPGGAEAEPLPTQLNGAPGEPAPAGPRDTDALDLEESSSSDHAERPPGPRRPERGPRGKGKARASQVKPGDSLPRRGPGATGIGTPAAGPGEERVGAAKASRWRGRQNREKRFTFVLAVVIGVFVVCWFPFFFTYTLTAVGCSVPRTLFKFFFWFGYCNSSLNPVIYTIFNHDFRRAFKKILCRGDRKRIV
Also: assay procedure not described here.

5-hydroxytryptamine receptor 2B, sequence (P41595 whole entry): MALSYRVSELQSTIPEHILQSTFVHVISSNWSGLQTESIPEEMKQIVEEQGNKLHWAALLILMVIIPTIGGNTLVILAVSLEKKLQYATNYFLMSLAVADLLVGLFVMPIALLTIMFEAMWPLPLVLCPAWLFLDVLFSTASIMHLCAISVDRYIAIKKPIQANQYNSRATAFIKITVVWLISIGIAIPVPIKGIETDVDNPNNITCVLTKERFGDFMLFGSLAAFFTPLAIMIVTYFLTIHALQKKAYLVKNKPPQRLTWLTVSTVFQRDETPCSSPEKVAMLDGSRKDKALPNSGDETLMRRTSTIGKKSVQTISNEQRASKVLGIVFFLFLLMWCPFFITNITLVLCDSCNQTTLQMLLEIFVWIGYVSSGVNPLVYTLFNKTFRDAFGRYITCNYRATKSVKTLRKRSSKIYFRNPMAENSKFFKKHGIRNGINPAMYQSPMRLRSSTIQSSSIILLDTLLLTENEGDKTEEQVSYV
Sodium-dependent serotonin transporter, sequence (P31645 whole entry): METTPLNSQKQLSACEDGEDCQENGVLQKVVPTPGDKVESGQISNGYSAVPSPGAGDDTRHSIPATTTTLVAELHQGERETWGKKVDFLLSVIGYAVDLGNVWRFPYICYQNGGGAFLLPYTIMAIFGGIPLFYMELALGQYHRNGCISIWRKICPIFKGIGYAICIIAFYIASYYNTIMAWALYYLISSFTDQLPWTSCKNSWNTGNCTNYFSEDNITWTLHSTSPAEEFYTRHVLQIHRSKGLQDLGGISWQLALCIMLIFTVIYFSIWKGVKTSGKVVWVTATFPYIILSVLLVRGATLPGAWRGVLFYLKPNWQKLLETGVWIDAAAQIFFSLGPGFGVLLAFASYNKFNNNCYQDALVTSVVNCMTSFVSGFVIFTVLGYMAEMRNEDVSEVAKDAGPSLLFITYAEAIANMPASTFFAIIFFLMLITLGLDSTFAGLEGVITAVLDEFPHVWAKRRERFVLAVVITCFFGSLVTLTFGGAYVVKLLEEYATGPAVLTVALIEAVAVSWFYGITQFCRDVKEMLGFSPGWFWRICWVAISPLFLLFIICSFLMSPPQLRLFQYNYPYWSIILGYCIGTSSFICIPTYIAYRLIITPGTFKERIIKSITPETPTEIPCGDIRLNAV
Mu-type opioid receptor, sequence (P35372 whole entry): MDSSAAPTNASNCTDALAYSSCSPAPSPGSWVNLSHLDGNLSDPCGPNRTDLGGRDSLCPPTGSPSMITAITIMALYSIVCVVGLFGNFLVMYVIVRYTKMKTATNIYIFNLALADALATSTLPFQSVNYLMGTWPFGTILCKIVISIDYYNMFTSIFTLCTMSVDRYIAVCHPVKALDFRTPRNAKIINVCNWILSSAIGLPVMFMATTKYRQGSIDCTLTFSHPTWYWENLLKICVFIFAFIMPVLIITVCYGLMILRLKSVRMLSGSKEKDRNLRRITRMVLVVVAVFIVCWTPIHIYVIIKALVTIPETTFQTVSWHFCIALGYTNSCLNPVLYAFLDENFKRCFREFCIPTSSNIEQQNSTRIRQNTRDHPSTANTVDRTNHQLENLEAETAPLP
Cannabinoid receptor 1, sequence (P21554 whole entry): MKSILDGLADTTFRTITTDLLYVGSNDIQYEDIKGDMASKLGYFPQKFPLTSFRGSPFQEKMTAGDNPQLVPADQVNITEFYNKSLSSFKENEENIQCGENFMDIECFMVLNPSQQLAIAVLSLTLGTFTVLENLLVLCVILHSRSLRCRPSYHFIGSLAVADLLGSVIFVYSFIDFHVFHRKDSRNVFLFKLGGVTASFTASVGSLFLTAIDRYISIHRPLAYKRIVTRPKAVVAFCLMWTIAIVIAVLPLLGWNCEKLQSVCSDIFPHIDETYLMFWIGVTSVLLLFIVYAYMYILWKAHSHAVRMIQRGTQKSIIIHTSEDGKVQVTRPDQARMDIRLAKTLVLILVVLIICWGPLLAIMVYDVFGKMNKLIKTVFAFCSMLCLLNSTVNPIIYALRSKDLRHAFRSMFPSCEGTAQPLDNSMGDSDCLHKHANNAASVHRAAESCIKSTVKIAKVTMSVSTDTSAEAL

| Structure (SMILES) | AC50 [1] [µM] | AC50 [2] [µM] | AC50 [3] [µM] | AC50 [4] [µM] | AC50 [5] [µM] | AC50 [6] [µM] | AC50 [7] [µM] | AC50 [8] [µM] | AC50 [9] [µM] | AC50 [10] [µM] | AC50 [11] [µM] |
| --- | --- | --- | --- | --- | --- | --- | --- | --- | --- | --- | --- |
| C[C@H](N[C@@H](CCc1ccccc1)C(=O)O)C(=O)N1Cc2ccccc2C[C@H]1C(=O)O | > 30 | > 30 | > 30 | – | – | – | – | – | – | – | – |
| O=C(/C=C/c1cccc(S(=O)(=O)Nc2ccccc2)c1)NO [BELINOSTAT] | – | > 30 | – | > 10 | > 30 | > 10 | > 30 | – | – | – | – |
| CC(C)(Oc1ccc(CCNC(=O)c2ccc(Cl)cc2)cc1)C(=O)O [BEZAFIBRATE] | – | – | – | > 10 | > 10 | > 10 | > 10 | > 10 | > 30 | > 30 | > 10 |
| CC(O)(CS(=O)(=O)c1ccc(F)cc1)C(=O)Nc1ccc(C#N)c(C(F)(F)F)c1 (stereo not given) [BICALUTAMIDE] | – | > 30 | – | > 10 | > 30 | 13 | > 30 | > 10 | > 30 | > 30 | > 10 |
| O=C(O)COCCN1CCN(C(c2ccccc2)c2ccc(Cl)cc2)CC1 (stereo not given) [CETIRIZINE] | > 30 | – | – | > 10 | > 30 | > 10 | > 30 | – | > 30 | > 30 | > 10 |
| CC(=O)O[C@]1(C(C)=O)CC[C@H]2[C@@H]3C=C(Cl)C4=CC(=O)[C@@H]5C[C@@H]5[C@]4(C)[C@H]3CC[C@@]21C [CYPROTERONE ACETATE] | – | > 30 | – | > 10 | > 30 | > 10 | > 30 | – | – | – | – |
| C[C@@H]1C[C@H]2[C@@H]3C[C@H](F)C4=CC(=O)C=C[C@]4(C)[C@@]3(F)[C@@H](O)C[C@]2(C)[C@@]1(OC(=O)c1ccco1)C(=O)SCF [FLUTICASONE FUROATE] | – | > 30 | – | > 10 | > 10 | > 10 | > 10 | > 10 | > 30 | > 30 | > 10 |
| CNCCc1ccc(OC(=O)C(C)C)c(OC(=O)C(C)C)c1 [IBOPAMINE] | – | – | – | > 30 | > 30 | 8.4 | > 30 | > 30 | 0.131 | > 30 | 3.48 |
| CN(C)CCCN1c2ccccc2CCc2ccccc21 [IMIPRAMINE] | – | – | – | 0.0804 | > 30 | 2.1 | 30.8 | > 10 | > 30 | > 30 | > 10 |
| O=C(CCC/C=C\C[C@@H]1[C@@H](CC[C@@H](O)CCc2ccccc2)[C@H](O)C[C@@H]1O)OCCCCO[N+](=O)[O-] [LATANOPROSTENE BUNOD] | – | > 30 | > 30 | – | – | – | – | – | – | – | – |
| CCC[C@@H]1C[C@@H](C(=O)N[C@@H]([C@H]2O[C@H](SC)[C@H](O)[C@@H](O)[C@H]2O)[C@@H](C)O)N(C)C1 [LINCOMYCIN] | – | – | – | > 10 | > 10 | > 10 | > 10 | > 30 | > 30 | > 30 | > 30 |
| C=C1c2cccc(O)c2C(=O)C2=C(O)[C@]3(O)C(=O)C(C(N)=O)=C(O)[C@@H](N(C)C)[C@@H]3[C@@H](O)[C@H]12 [METHACYCLINE] | – | – | – | > 10 | > 30 | > 10 | > 30 | > 10 | – | – | > 10 |
| CN(Cc1cnc2nc(N)nc(N)c2n1)c1ccc(C(=O)N[C@@H](CCC(=O)O)C(=O)O)cc1 [METHOTREXATE] | – | – | – | > 10 | > 30 | > 10 | > 30 | > 10 | > 30 | > 30 | > 10 |
| Cc1ccccc1N1C(=O)c2cc(S(N)(=O)=O)c(Cl)cc2NC1C (stereo not given) [METOLAZONE] | – | – | – | > 10 | > 10 | > 10 | > 10 | > 10 | – | – | > 10 |
| O=C(O)c1cccnc1Nc1cccc(C(F)(F)F)c1 [NIFLUMIC ACID] | – | – | – | > 10 | > 10 | > 10 | > 10 | > 10 | – | – | > 10 |
| COC(=O)C[C@](O)(CCCC(C)(C)O)C(=O)O[C@@H]1C(OC)=C[C@]23CCCN2CCc2cc4c(cc2[C@H]13)OCO4 [OMACETAXINE MEPESUCCINATE] | – | > 30 | > 30 | – | – | – | – | – | – | – | – |
| O=C1c2ccccc2C(=O)C1c1ccccc1 [PHENINDIONE] | – | – | – | > 10 | > 10 | > 10 | > 10 | > 10 | > 30 | > 30 | > 10 |
| CN[C@@H](C)[C@@H](O)c1ccccc1 [PSEUDOEPHEDRINE] | – | – | – | > 10 | > 30 | 13 | > 30 | > 10 | – | – | > 10 |
| CCCN1CC(NS(=O)(=O)N(CC)CC)CC2Cc3c(O)cccc3CC21 (stereo not given) [QUINAGOLIDE] | – | – | – | 29 | > 30 | 11 | > 30 | 3.67 | 0.45 | > 30 | > 30 |
| C[C@]12CCC(=O)C[C@@H]1CC[C@@H]1[C@@H]2CC[C@]2(C)[C@@H](O)CC[C@@H]12 [STANOLONE] | – | – | – | > 30 | > 30 | > 30 | > 30 | > 30 | > 30 | – | > 30 |
| COc1cc(C)c2c(Oc3cccc(C(F)(F)F)c3)c(OC)cc(NC(C)CCCN)c2n1 (stereo not given) [TAFENOQUINE] | – | 20.6 | 10.3 | – | – | – | – | – | – | – | – |
| O=S1(=O)CCN(CN2CCS(=O)(=O)NC2)CN1 [TAUROLIDINE] | – | > 30 | > 30 | – | – | > 30 | > 30 | > 30 | > 30 | > 30 | > 30 |
| C[C@]12C=CC(=O)C=C1CC[C@@H]1[C@@H]2CC[C@]2(C)OC(=O)CC[C@@H]12 [TESTOLACTONE] | – | – | – | > 10 | > 10 | > 10 | > 10 | > 30 | > 30 | > 30 | > 30 |
| COc1ccc2c(C(=S)N(C)CC(=O)O)cccc2c1C(F)(F)F [TOLRESTAT] | – | > 30 | > 30 | – | – | – | – | – | – | – | – |
